This assay concerns the target recombinant human His-ATG7 enzyme (Homo sapiens (Human), UniProt O95352). The assay can be described thus: ATG7 Enzyme Assay (HTRF/FRET, ATG3-GST and Flag-Gabarap). Format: biochemical. The conditions noted are these: for inhibition at 0.123 µM: Concentration 0.123 μM. In a few lines:
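HTRF read-out after 2 h at 24° C, using Eu-cryptate anti-Flag and XL-APC anti-GST antibodies in an EDTA stop buffer. The preceding 105 min, 24° C reaction (pH 7.5) held 10 μM ATP, 5 nM each ATG3-GST and Flag-Gabarap, and 0.15 nM human His-ATG7. Values are IC50 or percent inhibition at one concentration.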
(Time-resolved FRET reads energy transfer from a long-lived donor to a nearby acceptor.)

Setting [1] is: Concentration 0.111 μM, read-out: Percent Inhibition.

Some results are limits rather than exact numbers.

Experimental findings from US10865208B2, “ATG7 inhibitors and the uses thereof” (Millennium Pharmaceuticals, Inc., priority 2016, dated 2020) are described below.

As a reminder, the IC50 is the concentration that inhibits the measured activity by half. Broadly, the inhibition is how much of the control response was suppressed.

Chain of recombinant human His-ATG7 enzyme (O95352 whole entry): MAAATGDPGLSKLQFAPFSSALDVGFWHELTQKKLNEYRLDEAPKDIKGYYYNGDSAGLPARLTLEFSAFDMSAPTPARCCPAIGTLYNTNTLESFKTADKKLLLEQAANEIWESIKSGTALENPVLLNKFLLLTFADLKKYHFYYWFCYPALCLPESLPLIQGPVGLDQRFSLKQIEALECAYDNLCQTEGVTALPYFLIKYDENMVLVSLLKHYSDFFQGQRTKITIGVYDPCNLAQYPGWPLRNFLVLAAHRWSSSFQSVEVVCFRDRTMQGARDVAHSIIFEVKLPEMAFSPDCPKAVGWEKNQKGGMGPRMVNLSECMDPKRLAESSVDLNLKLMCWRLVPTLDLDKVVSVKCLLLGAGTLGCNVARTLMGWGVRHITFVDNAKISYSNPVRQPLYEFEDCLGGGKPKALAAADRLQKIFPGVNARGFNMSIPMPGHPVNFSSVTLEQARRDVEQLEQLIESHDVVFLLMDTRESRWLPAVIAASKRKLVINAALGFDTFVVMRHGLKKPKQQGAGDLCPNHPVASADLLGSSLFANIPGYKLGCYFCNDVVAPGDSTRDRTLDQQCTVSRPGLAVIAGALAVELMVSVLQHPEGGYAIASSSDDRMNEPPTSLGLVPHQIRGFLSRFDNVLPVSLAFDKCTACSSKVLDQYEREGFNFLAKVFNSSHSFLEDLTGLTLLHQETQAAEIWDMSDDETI

Regarding `CC(C)Sc1nn([C@@H]2O[C@@H](COS(N)(=O)=O)[C@@H](O)[C@H]2O)c2ncnc(N)c12` [Compound I-95, {(2S,3S,4R,5R)-5-[4-amino-3-(isopropylsulfanyl)-1H-pyrazolo[3,4-d]pyrimidin-1-yl]-3,4-dihydroxytetrahydrofuran-2-yl}methyl Sulfamate], the IC50 was 0.1 to 0.5 µM. In addition, the inhibition at 0.123 µM (read-out: Percent Inhibition) stood at 47%.
For `COc1ccc(F)c(Sc2nn([C@H]3C[C@H](O)[C@@H](COS(N)(=O)=O)O3)c3ncnc(N)c23)c1` [Compound I-173, [(2R,3S,5R)-5-{4-amino-3-[(2-fluoro-5-methoxyphenyl)sulfanyl]-1H-pyrazolo[3,4-d]pyrimidin-1-yl}-3-hydroxytetrahydrofuran-2-yl]methyl sulfamate], the IC50 fell in the range of 0.02 to 0.05 µM. In addition, the inhibition at 0.111 µM under setting [1] was 81%.
With `Nc1ncnc2c1c(Sc1ccc3c(c1)CCC3)nn2[C@H]1C[C@H](O)[C@@H](COS(N)(=O)=O)O1` [Compound I-160, {(2R,3S,5R)-5-[4-amino-3-(2,3-dihydro-1H-inden-5-ylsulfanyl)-1H-pyrazolo[3,4-d]pyrimidin-1-yl]-3-hydroxytetrahydrofuran-2-yl}methyl Sulfamate], the IC50 lay in the range of 0.05 to 0.1 µM. For the same compound, the inhibition at 0.111 µM under setting [1] came to 62%.
On the same counts, the results for `Nc1ncnc2c1c(Sc1ccc(Cl)cc1)nn2[C@@H]1O[C@H](COS(N)(=O)=O)[C@@H](O)[C@@H]1F` [Compound I-133, [(2R,3R,4S,5R)-5-{4-amino-3-[(4-chlorophenyl)sulfanyl]-1H-pyrazolo[3,4-d]pyrimidin-1-yl}-4-fluoro-3-hydroxytetrahydrofuran-2-yl]methyl sulfamate] are 0.02 to 0.05 µM and 67%.
Take `CC(C)Sc1nn([C@@H]2O[C@H](COS(N)(=O)=O)[C@@H](O)[C@@H]2F)c2ncnc(N)c12` [Compound I-139, {(2R,3R,4S,5R)-5-[4-amino-3-(isopropylsulfanyl)-1H-pyrazolo[3,4-d]pyrimidin-1-yl]-4-fluoro-3-hydroxytetrahydrofuran-2-yl}methyl Sulfamate]: the IC50 lay in the range of 0.02 to 0.05 µM. The inhibition at 0.111 µM under setting [1] came out at 84%.
Take `CCC(C)Sc1nn([C@@H]2O[C@H](COS(N)(=O)=O)[C@@H](O)[C@@H]2F)c2ncnc(N)c12` (single isomer, unassigned) [Compound I-136a]: the IC50 lay within 0.05 to 0.1 µM. The “Percent Inhibition” value (Concentration 0.111 μM) is given as 63%.
Regarding `C=Cc1nn([C@@H]2O[C@H](COS(N)(=O)=O)[C@@H](O)[C@H]2O)c2ncnc(N)c12` [Compound I-18, [(2R,3S,4R,5R)-5-(4-amino-3-vinyl-1H-pyrazolo[3,4-d]pyrimidin-1-yl)-3,4-dihydroxytetrahydrofuran-2-yl]methyl Sulfamate], the IC50 was 0.05 to 0.1 µM. The inhibition at 0.123 µM (read-out: Percent Inhibition) was 62%.
Consider `CC(=O)c1nn([C@@H]2O[C@H](COS(N)(=O)=O)[C@@H](O)[C@H]2O)c2ncnc(N)c12` [Compound I-21, [(2R,3S,4R,5R)-5-(3-acetyl-4-amino-1H-pyrazolo[3,4-d]pyrimidin-1-yl)-3,4-dihydroxytetrahydrofuran-2-yl]methyl Sulfamate], for which the IC50 is 0.1 to 0.5 µM. Also, where the note is “read-out: Percent Inhibition”, the inhibition at 0.123 µM is 22%.
With `Nc1ncnc2c1c(SCc1ccncc1)nn2[C@@H]1O[C@H](COS(N)(=O)=O)[C@@H](O)[C@@H]1F` [Compound I-124, [(2R,3R,4S,5R)-5-{4-amino-3-[(pyridin-4-ylmethyl)sulfanyl]-1H-pyrazolo[3,4-d]pyrimidin-1-yl}-4-fluoro-3-hydroxytetrahydrofuran-2-yl]methyl sulfamate], the IC50 was 0.05 to 0.1 µM. For the same compound, the inhibition at 0.111 µM under setting [1] came to 52%.
For the compound `Nc1ncnc2c1c(Sc1ccncc1)nn2[C@@H]1O[C@H](COS(N)(=O)=O)[C@@H](O)[C@@H]1F` [Compound I-150, {(2R,3R,4S,5R)-5-[4-amino-3-(pyridin-4-ylsulfanyl)-1H-pyrazolo[3,4-d]pyrimidin-1-yl]-4-fluoro-3-hydroxytetrahydrofuran-2-yl}methyl Sulfamate], the IC50 lay within 0.1 to 0.5 µM. In addition, the inhibition at 0.111 µM under setting [1] was 46%.
Take `Nc1ncnc2c1c(CCc1ccccc1)nn2[C@@H]1O[C@H](COS(N)(=O)=O)[C@@H](O)[C@H]1O` [Compound I-12, {(2R,3S,4R,5R)-5-[4-amino-3-(2-phenylethyl)-1H-pyrazolo[3,4-d]pyrimidin-1-yl]-3,4-dihydroxytetrahydrofuran-2-yl}methyl Sulfamate]: the IC50 lay in the range of 0.1 to 0.5 µM. Moreover, the inhibition at 0.123 µM (read-out: Percent Inhibition) stood at 20%.
Turning to `Cc1cccc(Sc2nn([C@@H]3O[C@H](COS(N)(=O)=O)[C@@H](O)[C@H]3O)c3ncnc(N)c23)c1` [Compound I-69, [(2R,3S,4R,5R)-5-{4-amino-3-[(3-methylphenyl)sulfanyl]-1H-pyrazolo[3,4-d]pyrimidin-1-yl}-3,4-dihydroxytetrahydrofuran-2-yl]methyl sulfamate], the IC50 was less than 0.02 µM. The inhibition at 0.111 µM under setting [1] turned out to be 86%.
Regarding `NC(=O)c1nn([C@@H]2O[C@H](COS(N)(=O)=O)[C@@H](O)[C@H]2O)c2ncnc(N)c12` [Compound I-16, [(2R,3S,4R,5R)-5-(4-amino-3-carbamoyl-1H-pyrazolo[3,4-d]pyrimidin-1-yl)-3,4-dihydroxytetrahydrofuran-2-yl]methyl Sulfamate], the half-inhibitory concentration (IC50) is 0.1 to 0.5 µM. Moreover, the inhibition at 0.069 µM (Concentration 0.069 μM, read-out: Percent Inhibition) turned out to be 22%.
As for `Nc1ncnc2c1c(Sc1ccc(F)cc1)nn2[C@H]1C[C@H](O)[C@@H](COS(N)(=O)=O)O1` [Compound I-187, [(2R,3S,5R)-5-{4-amino-3-[(4-fluorophenyl)sulfanyl]-1H-pyrazolo[3,4-d]pyrimidin-1-yl}-3-hydroxytetrahydrofuran-2-yl]methyl sulfamate], the IC50 is 0.05 to 0.1 µM. Further, the inhibition at 0.111 µM under setting [1] was found to be 56%.
On to `CC(C)(C)Sc1nn([C@H]2C[C@H](O)[C@@H](COS(N)(=O)=O)O2)c2ncnc(N)c12` [Compound I-177, {(2R,3S,5R)-5-[4-amino-3-(tert-butylsulfanyl)-1H-pyrazolo[3,4-d]pyrimidin-1-yl]-3-hydroxytetrahydrofuran-2-yl}methyl sulfamate], for which the IC50 lay within 0.02 to 0.05 µM. In addition, under setting [1], the inhibition at 0.111 µM came out at 70%.
`CC(Sc1nn([C@@H]2O[C@H](COS(N)(=O)=O)[C@@H](O)[C@@H]2F)c2ncnc(N)c12)C1CC1` (mixture of isomers) [Compound I-157, [(2R,3R,4S,5R)-5-(4-amino-3-{[(1R)-1-cyclopropylethyl]sulfanyl}-1H-pyrazolo[3,4-d]pyrimidin-1-yl)-4-fluoro-3-hydroxytetrahydrofuran-2-yl]methyl sulfamate and [(2R,3R,4S,5R)-5-(4-amino-3-{[(1S)-1-cyclopropylethyl]sulfanyl}-1H-pyrazolo[3,4-d]pyrimidin-1-yl)-4-fluoro-3-hydroxytetrahydrofuran-2-yl]methyl sulfamate]: the half-inhibitory concentration (IC50) fell in the range of 0.02 to 0.05 µM. Under setting [1], the inhibition at 0.111 µM was 71%.
Turning to `Nc1ncnc2c1c(Sc1ccccc1F)nn2[C@H]1C[C@H](O)[C@H](COS(N)(=O)=O)O1` [Compound I-215, [(2S,3S,5R)-5-{4-amino-3-[(2-fluorophenyl)sulfanyl]-1H-pyrazolo[3,4-d]pyrimidin-1-yl}-3-hydroxytetrahydrofuran-2-yl]methyl sulfamate], the IC50 was 0.1 to 0.5 µM. Further, the inhibition at 0.111 µM under setting [1] is 45%.
